# Measured values published in patent publication US20150111764A1, “POLYMERIZED MICROARRAYS” (New York University, priority 2013, published 2015).
# Tests used:
# Concanavalin A (ConA) = Concanavalin A (ConA) (Canavalia ensiformis, UniProt P02866)
# From the text: Fluorescence intensity profiles of the array were obtained from a Nikon Eclipse Ti fluorescence microscope (λex=532-587 nm, λobs=608-683 nm), and extracted by NIS-elements software (Nikon Instruments, Inc.). Exposure times ranged from 1-4 s, depending on the brightness of the arrays. To compare data taken with different exposure times, the normalized fluorescence was obtained by dividing the maximum fluorescence by the background fluorescence. It is possible that the ratio of signal-to-background can vary with exposure time, so to test the effect of exposure time on the normalized fluorescence of features on the microarray, fluorescence images of a surface patterned with compound 4 and bound to Cy3-modified ConA were taken at different exposure time.
# Preparation of Carbohydrate arrays by PPL-induced Thiol-ene and Thiol-acrylate reaction. To prepare the pen arrays for inking, they were exposed to O2 plasma (Harrick PDC-001, 30 s, medium power) to render the surfaces of the pen-arrays hydrophilic. […]
# Arrays of compound 3 and compound 4 were prepared by the thiol-methacrylate and thiol-ene reactions, respectively, as well as α-mannosides immobilized by the thiol-ene and Cuaac reaction. Binding of Concanavalin A (ConA) to these arrays was measured by fluorescence microscopy to determine how the mutivalency of the resulting glycans affects binding. […]
# [1] = molecular target: T1, Rhodamine-labeled PNA (galactose-specific lectin) (Arachis hypogaea, UniProt P02872); experiment: Control: glycan arrays exposed to Rhodamine-labeled PNA, fluorescence; assay type: binding; conditions: PNA 1.5×10^−5 M, 5 h, washed with phosphate buffer/Tween 20
# T1 sequence (P02872 24-273): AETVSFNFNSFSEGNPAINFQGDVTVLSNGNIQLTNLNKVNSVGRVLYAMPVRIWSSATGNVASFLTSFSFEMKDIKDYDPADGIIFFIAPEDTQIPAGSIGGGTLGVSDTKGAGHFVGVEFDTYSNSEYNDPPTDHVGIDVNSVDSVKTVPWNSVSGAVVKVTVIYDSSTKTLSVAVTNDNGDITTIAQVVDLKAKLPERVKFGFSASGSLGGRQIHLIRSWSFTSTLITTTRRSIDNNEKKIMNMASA
# From the text: Control Experiments. […] This experiment supports the conclusion that fluorescence in the Cy3-labelled ConA exposed arrays of compound 3 and compound 4 arise from ConA-glucose binding (FIG. 27).
substance,measurement,setting,value
α-glucomethacrylate [compound 3],lowest ConA concentration detected by the array,"Concanavalin A (ConA); ConA concentration varied systematically, thiol-acrylate brush polymer arrays",0.2 µM
same,normalized fluorescence of array after ConA binding,"Concanavalin A (ConA); Cy3-labelled ConA 0.5 mg/mL, 4 h at 4° C., maximum fluorescence divided by background fluorescence",7.1±0.2
same,fluorescence after exposure to Rhodamine-labeled PNA,[1],no fluorescence was observed
same,fluorescence after exposure to Rhodamine-labeled PNA,[1]; listed as Compound 3,no visible fluorescence was observed
